Results as given in ChEMBL document CHEMBL6087456 (J Med Chem, 2025).
≈ marks a conversion by molar mass, not a printed value.

Tests used:
[1] = Cytotoxicity against human HepG2 cells by Cell Titer Glo assay; format: toxicity, cell-based
Cytochrome P450 2D6 = Cytochrome P450 2D6 (Homo sapiens, UniProt P10635); assay: Inhibition of CYP2D6 in human liver microsomes; format: ADME, Microsome
[2] = Protein binding in human hepatocytes; format: ADME, cell-based, Hepatocyte; conditions: read-out: PB (converted)
Cytochrome P450 1A2 = molecular target: T1, Cytochrome P450 1A2 (Homo sapiens, UniProt P05177); assay: Inhibition of CYP1A2 in human liver microsomes; format: ADME, Microsome
T1 sequence (P05177 whole entry): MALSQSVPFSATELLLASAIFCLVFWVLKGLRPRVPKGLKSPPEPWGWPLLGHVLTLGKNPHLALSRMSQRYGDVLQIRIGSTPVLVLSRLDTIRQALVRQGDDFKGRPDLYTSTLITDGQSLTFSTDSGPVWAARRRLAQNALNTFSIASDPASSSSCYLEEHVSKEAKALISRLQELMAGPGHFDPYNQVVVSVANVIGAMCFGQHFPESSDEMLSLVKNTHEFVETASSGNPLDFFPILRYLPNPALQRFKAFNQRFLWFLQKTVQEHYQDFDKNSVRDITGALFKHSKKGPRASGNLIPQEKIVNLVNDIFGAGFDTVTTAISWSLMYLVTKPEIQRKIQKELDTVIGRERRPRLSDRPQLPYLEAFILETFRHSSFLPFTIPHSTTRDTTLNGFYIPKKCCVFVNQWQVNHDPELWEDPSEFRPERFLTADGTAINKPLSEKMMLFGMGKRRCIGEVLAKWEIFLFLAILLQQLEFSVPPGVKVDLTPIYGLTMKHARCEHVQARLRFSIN

Cytochrome P450 3A4 = Cytochrome P450 3A4 (Homo sapiens, UniProt P08684); assay: Inhibition of CYP3A4 in human liver microsomes; format: ADME, Microsome
[3] = Oral bioavailability in overnight-fasted male Sprague-Dawley rat at 3 mg/kg measured upto 72 hrs by LCMS analysis; format: ADME, organism-based; conditions: in vivo
[4] = Metabolic stability in human liver microsomes assessed as intrinsic clearance at 0.5 uM incubated for 60 mins in presence of NADPH by tandem quadrupole-Time of Flight MS; format: ADME, Microsome; conditions: 1 h
Plasmodium falciparum [5] = assay: Antiparasitic activity against asexual blood stage Plasmodium falciparum 3D7 incubated for 72 hrs by SYBR Green assay; format: functional, organism-based; conditions: 3D7, 72 h
[6] = Cytotoxicity against human Jurkat cells by Cell Titer Glo assay; format: toxicity, cell-based
[7] = molecular target: T2, Dihydroorotate dehydrogenase (quinone), mitochondrial (Plasmodium falciparum (isolate 3D7), UniProt Q08210); assay: Inhibition of N-terminal His6-tagged recombinant Plasmodium falciparum DHODH (158 to 569 residues) N-terminally truncated soluble domain extracted from Escherichia coli phage resistant BL21-DE3 using CoQD/DHA/DCIP as substrates
T2 sequence (Q08210 whole entry): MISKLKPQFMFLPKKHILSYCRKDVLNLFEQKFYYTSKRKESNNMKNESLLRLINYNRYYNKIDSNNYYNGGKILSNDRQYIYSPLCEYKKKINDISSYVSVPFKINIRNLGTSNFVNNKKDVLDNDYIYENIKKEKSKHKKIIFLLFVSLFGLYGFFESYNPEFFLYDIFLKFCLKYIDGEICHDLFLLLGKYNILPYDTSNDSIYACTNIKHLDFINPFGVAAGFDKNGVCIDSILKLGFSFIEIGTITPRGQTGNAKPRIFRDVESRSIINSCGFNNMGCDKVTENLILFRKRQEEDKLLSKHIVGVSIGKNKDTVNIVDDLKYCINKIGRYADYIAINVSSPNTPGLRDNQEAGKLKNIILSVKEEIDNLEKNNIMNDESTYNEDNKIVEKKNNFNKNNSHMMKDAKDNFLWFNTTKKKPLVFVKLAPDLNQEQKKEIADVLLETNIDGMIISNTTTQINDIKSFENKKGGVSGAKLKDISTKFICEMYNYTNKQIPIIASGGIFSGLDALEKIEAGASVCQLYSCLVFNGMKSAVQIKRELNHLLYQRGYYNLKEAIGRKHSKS

Cytochrome P450 2B6 = molecular target: T3, Cytochrome P450 2B6 (Homo sapiens, UniProt P20813); assay: Inhibition of CYP2B6 in human liver microsomes; format: ADME, Microsome
T3 sequence (P20813 whole entry): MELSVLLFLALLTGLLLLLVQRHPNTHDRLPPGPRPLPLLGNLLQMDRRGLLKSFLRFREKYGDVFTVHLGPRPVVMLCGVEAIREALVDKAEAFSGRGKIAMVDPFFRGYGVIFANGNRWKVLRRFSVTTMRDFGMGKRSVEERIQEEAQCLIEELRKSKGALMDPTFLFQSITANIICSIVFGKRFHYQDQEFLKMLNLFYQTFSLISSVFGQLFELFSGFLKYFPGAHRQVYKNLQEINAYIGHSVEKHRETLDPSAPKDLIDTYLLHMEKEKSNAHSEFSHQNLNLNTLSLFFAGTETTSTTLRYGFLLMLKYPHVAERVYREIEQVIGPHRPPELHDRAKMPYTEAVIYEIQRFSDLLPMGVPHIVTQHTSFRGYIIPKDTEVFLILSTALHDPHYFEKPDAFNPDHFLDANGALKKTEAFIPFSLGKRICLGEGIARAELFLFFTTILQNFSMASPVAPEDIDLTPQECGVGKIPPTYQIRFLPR

[8] = Kinetic solubility of compound at pH 6.5 measured after 30 mins by nephelometry; format: physicochemical; conditions: buffer, pH 6.5, read-out: Kinetic_solubility
[9] = Drug excretion in Sprague-Dawley rat urine at 1 mg/kg, iv; format: ADME, organism-based; conditions: read-out: Drug excretion
[10] = Oral absorption in overnight-fasted male Sprague-Dawley rat at 3 mg/kg measured upto 72 hrs by LCMS analysis; format: ADME, organism-based; conditions: in vivo
[11] = Partition coefficient, log D of compound at pH 7.4 measured after 24 hrs by LCMS analysis; format: physicochemical; conditions: octanol/water, pH 7.4, 24 h
Albumin = Albumin (Homo sapiens, UniProt P02768); assay: Protein binding to albumin (unknown origin) in ALBUMAX medium; format: ADME; conditions: read-out: PB (converted)
[12] = molecular target: Dihydroorotate dehydrogenase (quinone), mitochondrial (Homo sapiens, UniProt Q02127); assay: Inhibition of C-terminal His6-tagged recombinant human DHODH (29 to 395 residues) N-terminally truncated soluble domain extracted from Escherichia coli phage resistant BL21-DE3 using CoQD/DHA/DCIP as substrates
Cytochrome P450 2C19 = Cytochrome P450 2C19 (Homo sapiens, UniProt P33261); assay: Inhibition of CYP2C19 in human liver microsomes; format: ADME, Microsome
[13] = Plasma protein binding in rat measured for 6 hrs by rapid equilibrium dialysis; format: ADME, cell-free
[14] = Permeability across apical to basal side in human Caco-2 cells; format: ADME, cell-based
[15] = Plasma protein binding in human measured for 6 hrs by rapid equilibrium dialysis; format: ADME, cell-free
[16] = Ratio of drug concentration in Sprague-Dawley rat brain to plasma at 1 uM measured for 5 to 60 mins by LCMS analysis; format: ADME, cell-free; conditions: time 5-60 min
[17] = Half life in overnight-fasted male Sprague-Dawley rat at 3 mg/kg, po or 1 mg/kg, iv measured upto 72 hrs by LCMS analysis; format: ADME, organism-based; conditions: in vivo
[18] = Volume of distribution at steady state in overnight-fasted male Sprague-Dawley rat at 3 mg/kg, po or 1 mg/kg, iv measured upto 72 hrs by LCMS analysis; format: ADME, organism-based; conditions: in vivo
[19] = Half life in human; format: ADME
Plasmodium falciparum [20] = assay: Antiparasitic activity against ring-stage Plasmodium falciparum D10 transformed with yeast DHODH incubated for 72 hrs by SYBR Green assay; format: functional, organism-based; conditions: D10, 72 h

Chain of Cytochrome P450 2D6 (P10635 whole entry): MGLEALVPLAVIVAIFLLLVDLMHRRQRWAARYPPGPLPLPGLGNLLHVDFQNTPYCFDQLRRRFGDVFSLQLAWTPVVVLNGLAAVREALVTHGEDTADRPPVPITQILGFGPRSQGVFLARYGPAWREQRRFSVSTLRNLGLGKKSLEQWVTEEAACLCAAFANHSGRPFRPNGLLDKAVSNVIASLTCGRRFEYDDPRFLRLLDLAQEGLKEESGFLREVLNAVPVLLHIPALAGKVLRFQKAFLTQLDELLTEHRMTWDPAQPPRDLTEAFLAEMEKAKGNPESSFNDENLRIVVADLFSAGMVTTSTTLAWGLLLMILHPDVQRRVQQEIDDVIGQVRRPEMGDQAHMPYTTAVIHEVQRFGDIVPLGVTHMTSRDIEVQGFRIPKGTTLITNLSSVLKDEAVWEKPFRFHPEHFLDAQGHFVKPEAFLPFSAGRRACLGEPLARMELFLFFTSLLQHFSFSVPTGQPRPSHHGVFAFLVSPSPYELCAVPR
Chain of Dihydroorotate dehydrogenase (quinone), mitochondrial (Homo sapiens, UniProt Q02127) (Q02127 whole entry, the tested form may be a part): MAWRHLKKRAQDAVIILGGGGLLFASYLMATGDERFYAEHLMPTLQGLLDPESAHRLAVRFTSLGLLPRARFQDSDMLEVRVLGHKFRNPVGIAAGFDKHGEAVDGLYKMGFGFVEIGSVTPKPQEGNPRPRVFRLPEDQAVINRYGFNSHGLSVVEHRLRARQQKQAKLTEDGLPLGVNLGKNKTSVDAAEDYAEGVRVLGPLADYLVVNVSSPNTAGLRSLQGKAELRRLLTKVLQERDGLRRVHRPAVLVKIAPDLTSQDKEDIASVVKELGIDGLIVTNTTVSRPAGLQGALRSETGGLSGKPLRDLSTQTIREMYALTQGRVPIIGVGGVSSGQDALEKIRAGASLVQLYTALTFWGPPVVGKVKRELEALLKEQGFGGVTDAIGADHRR
Chain of Albumin (P02768 whole entry, the tested form may be a part): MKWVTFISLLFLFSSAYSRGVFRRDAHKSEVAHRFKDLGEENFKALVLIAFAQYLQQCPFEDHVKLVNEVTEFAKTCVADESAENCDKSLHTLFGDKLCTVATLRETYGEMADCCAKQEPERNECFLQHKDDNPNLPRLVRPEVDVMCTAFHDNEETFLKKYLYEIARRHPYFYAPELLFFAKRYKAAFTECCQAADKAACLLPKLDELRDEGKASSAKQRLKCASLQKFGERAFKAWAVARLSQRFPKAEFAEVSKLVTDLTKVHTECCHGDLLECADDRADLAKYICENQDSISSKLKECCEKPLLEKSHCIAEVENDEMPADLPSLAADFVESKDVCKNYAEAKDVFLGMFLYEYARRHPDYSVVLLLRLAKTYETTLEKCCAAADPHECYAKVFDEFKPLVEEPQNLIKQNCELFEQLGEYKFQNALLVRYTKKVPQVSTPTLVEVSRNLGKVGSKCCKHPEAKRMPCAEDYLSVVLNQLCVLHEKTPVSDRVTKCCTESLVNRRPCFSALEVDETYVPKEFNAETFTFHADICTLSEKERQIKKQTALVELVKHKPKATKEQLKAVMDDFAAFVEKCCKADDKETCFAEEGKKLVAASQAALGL
Chain of Cytochrome P450 3A4 (P08684 whole entry): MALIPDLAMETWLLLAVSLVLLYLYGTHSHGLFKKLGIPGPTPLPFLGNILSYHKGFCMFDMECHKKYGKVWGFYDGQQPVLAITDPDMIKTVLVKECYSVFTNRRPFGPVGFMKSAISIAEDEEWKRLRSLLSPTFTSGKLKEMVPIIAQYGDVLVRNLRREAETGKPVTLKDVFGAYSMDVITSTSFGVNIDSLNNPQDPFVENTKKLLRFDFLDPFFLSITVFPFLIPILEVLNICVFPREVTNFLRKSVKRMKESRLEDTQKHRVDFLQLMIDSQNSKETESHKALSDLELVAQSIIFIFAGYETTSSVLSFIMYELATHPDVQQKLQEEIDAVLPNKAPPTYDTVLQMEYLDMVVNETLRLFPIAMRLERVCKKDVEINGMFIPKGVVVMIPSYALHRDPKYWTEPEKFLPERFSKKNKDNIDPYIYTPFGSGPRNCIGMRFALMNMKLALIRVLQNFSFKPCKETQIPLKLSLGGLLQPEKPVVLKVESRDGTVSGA
Chain of Cytochrome P450 2C19 (P33261 whole entry): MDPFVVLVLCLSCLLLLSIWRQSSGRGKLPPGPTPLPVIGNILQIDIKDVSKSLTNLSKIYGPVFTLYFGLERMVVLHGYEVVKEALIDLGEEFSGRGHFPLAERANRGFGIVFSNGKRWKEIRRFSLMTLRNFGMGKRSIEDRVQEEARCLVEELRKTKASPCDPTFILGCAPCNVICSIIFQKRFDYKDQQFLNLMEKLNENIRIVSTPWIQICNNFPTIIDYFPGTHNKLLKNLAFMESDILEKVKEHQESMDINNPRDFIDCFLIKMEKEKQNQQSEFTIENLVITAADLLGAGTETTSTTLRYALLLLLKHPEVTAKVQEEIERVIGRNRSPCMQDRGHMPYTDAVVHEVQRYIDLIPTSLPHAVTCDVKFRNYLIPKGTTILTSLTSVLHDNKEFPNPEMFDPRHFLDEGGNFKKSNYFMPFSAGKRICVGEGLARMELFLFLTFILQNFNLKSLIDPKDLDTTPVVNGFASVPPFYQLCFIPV

Molecule `CC[C@@](N)(c1cnc(C(F)(F)F)c(Cl)c1)c1c2ncn(C3CC3)c(=O)c2nn1C` has a CC50 [1] of over 20 µM, an IC50 (Cytochrome P450 2D6) of over 20 µM and a fraction unbound [2] of 0.589. For the same molecule, the IC50 (Cytochrome P450 1A2) was over 20 µM, the IC50 (Cytochrome P450 3A4) was over 20 µM and the F [3] was 79%. The “intrinsic clearance (CLint)” value [4] was under 3 µL/min/mg, the EC50 (Plasmodium falciparum [5]) was 0.007 µM and the CC50 [6] was over 20 µM. For the same molecule, the IC50 [7] was 0.038 µM, the IC50 (Cytochrome P450 2B6) was over 20 µM and the solubility kinetic at 0.5 h [8] was 80 µM (≈ 34.1 µg/mL). The dose excreted [9] was under 1%, the Fa at 72 h [10] was 64% and the logD [11] was 3.44. The fraction unbound (Albumin) was 0.703 and the IC50 [12] was over 30 µM.

In the case of `Cn1nc2c(=O)n(C3CC3)ccc2c1[C@](O)(c1cnc(C(F)(F)F)c(Cl)c1)C(F)(F)F`, the IC50 (Cytochrome P450 2C19) is reported as 6.7 µM, the CC50 [1] is reported as over 20 µM and the PPB [13] is reported as 75.9%. It also gave an IC50 (Cytochrome P450 2D6) of over 20 µM, a fraction unbound [2] of 0.249 and an IC50 (Cytochrome P450 1A2) of over 20 µM. The permeability [14] was “Permeable”, the IC50 (Cytochrome P450 3A4) was over 20 µM and the F [3] was over 63%. The “intrinsic clearance (CLint)” value [4] was under 3 µL/min/mg, the EC50 (Plasmodium falciparum [5]) was 0.001 µM and the PPB [15] was 68.5%. It also gave a CC50 [6] of over 20 µM, a BPR [16] of 0.79 and an IC50 (Cytochrome P450 2B6) of over 20 µM. For the same molecule, the solubility kinetic at 0.5 h [8] was 20 µM (≈ 9.34 µg/mL), the dose excreted [9] was under 1% and the Fa at 72 h [10] was 100%. It also gave a logD [11] of 2.3, a fraction unbound (Albumin) of 0.338 and an IC50 [12] of over 30 µM.

For `Cn1nc2c(=O)n(C3CC3)ncc2c1[C@](O)(c1cnc(C(F)(F)F)c(Cl)c1)C(F)(F)F`, the CC50 [1] was over 20 µM, the PPB [13] was 97.3% and the IC50 (Cytochrome P450 2D6) was over 20 µM. For the same molecule, the fraction unbound [2] was 0.342, the IC50 (Cytochrome P450 1A2) was over 20 µM and the t1/2 [17] was 23 h. For the same molecule, the permeability [14] was “Permeable”, the IC50 (Cytochrome P450 3A4) was over 20 µM and the F [3] was over 100%. For the same molecule, the “intrinsic clearance (CLint)” value [4] was under 3 µL/min/mg, the EC50 (Plasmodium falciparum [5]) was 0.003 µM and the PPB [15] was 99.1%. It also gave a CC50 [6] of over 20 µM, an IC50 (Cytochrome P450 2B6) of over 20 µM and a solubility kinetic at 0.5 h [8] of 20 µM (≈ 9.36 µg/mL). The dose excreted [9] was under 1%, the Fa at 72 h [10] was 94% and the fraction unbound (Albumin) was 0.319. It also gave an IC50 [12] of over 30 µM.

In the case of `CC[C@@](O)(c1cnc(C(F)(F)F)c(Cl)c1)c1c2ccn(C3CC3)c(=O)c2nn1C`, the PPB [13] is reported as 89.4%, the fraction unbound [2] is reported as 0.676 and the “intrinsic clearance (CLint)” value [4] is reported as under 3 µL/min/mg. For the same molecule, the EC50 (Plasmodium falciparum [5]) was 0.001 µM, the PPB [15] was 94% and the Vdss [18] was 1.22 L/kg. The solubility kinetic at 0.5 h [8] was 40 µM (≈ 17.1 µg/mL), the Fa at 72 h [10] was 67% and the logD [11] was 2.4. The fraction unbound (Albumin) was 0.511.

With `Cc1c(C2(c3ccc(C(F)(F)F)nc3)CC2)c[nH]c1C(=O)N[C@H](C)c1nc[nH]n1` the half-life [19] was over 100 h.

`CC[C@@](O)(c1cnc(C(F)(F)F)c(Cl)c1)c1c2cnn(C3CC3)c(=O)c2nn1C` showed a CC50 [1] of over 20 µM, a PPB [13] of 84.9% and an F [3] of 80%. The “intrinsic clearance (CLint)” value [4] was under 3 µL/min/mg, the EC50 (Plasmodium falciparum [5]) was 0.003 µM and the EC50 (Plasmodium falciparum [20]) was 3.8 µM. The PPB [15] was 78.2%, the CC50 [6] was over 20 µM and the solubility kinetic at 0.5 h [8] was 25 µM (≈ 10.7 µg/mL). The dose excreted [9] was under 1%, the Fa at 72 h [10] was 81% and the fraction unbound (Albumin) was 0.709. It also gave an IC50 [12] of over 30 µM.
